Assay results taken from publication PMC6151437, “Antibacterial Synthetic Peptides Derived from Bovine Lactoferricin Exhibit Cytotoxic Effect against MDA-MB-468 and MDA-MB-231 Breast Cancer Cell Lines” (Molecules : A Journal of Synthetic Chemistry and Natural …, 2017).
≈ marks a conversion by molar mass, not a printed value. Read-outs that look alike come from different tables or passages of the source. Bridge positions count the residues as written; N and C are the ends. Square brackets hold non-standard residues; d marks the D form. Peptide text beside a SMILES is read from it. I, II: the chains in the order shown. Ahx = NCCCCCC(=O)O

How the values were obtained:
E. coli ATCC 11775 [1] = test system: E. coli ATCC 11775; set-up: method as in ref 15, 25, 26 = [15]; PMID 25815317; doi:10.1155/2015/453826; 15. León M.A. Leal A.L. Almanzar G. Rosas J.E. García J.E. Rivera Z.J. Antibacterial activity of synthetic peptides derived from Lactoferricin against Escherichia coli ATCC 25922 and Enterococcus faec || [25]; PMID 28613262; doi:10.3390/molecules22060987; 25. Huertas N.J. Monroy Z.J.R. Medina R.F. Castañeda J.E.G. Antimicrobial Activity of Truncated and Polyvalent Peptides Derived from the FKCRRWQWRMKKGLA Sequence against Escherichia coli ATCC 25922 an || [26]; PMID 28287494; doi:10.3390/molecules22030452; 26. Huertas Méndez N.J. Vargas Casanova Y. Gómez Chimbi A.K. Hernández E. Leal Castro A.L. Melo Diaz J.M. Rivera Monroy Z.J. García Castañeda J.E. Synthetic Peptides Derived from Bovine Lactoferricin; conditions: cited from earlier work
[2] = test system: S. enteriditis ATCC 13076; set-up: method as in ref 15, 25, 26 = [15]; PMID 25815317; doi:10.1155/2015/453826; 15. León M.A. Leal A.L. Almanzar G. Rosas J.E. García J.E. Rivera Z.J. Antibacterial activity of synthetic peptides derived from Lactoferricin against Escherichia coli ATCC 25922 and Enterococcus faec || [25]; PMID 28613262; doi:10.3390/molecules22060987; 25. Huertas N.J. Monroy Z.J.R. Medina R.F. Castañeda J.E.G. Antimicrobial Activity of Truncated and Polyvalent Peptides Derived from the FKCRRWQWRMKKGLA Sequence against Escherichia coli ATCC 25922 an || [26]; PMID 28287494; doi:10.3390/molecules22030452; 26. Huertas Méndez N.J. Vargas Casanova Y. Gómez Chimbi A.K. Hernández E. Leal Castro A.L. Melo Diaz J.M. Rivera Monroy Z.J. García Castañeda J.E. Synthetic Peptides Derived from Bovine Lactoferricin; conditions: cited from earlier work
E. coli ATCC 25922 [3] = test system: E. coli ATCC 25922; set-up: method as in ref 15, 25, 26 = [15]; PMID 25815317; doi:10.1155/2015/453826; 15. León M.A. Leal A.L. Almanzar G. Rosas J.E. García J.E. Rivera Z.J. Antibacterial activity of synthetic peptides derived from Lactoferricin against Escherichia coli ATCC 25922 and Enterococcus faec || [25]; PMID 28613262; doi:10.3390/molecules22060987; 25. Huertas N.J. Monroy Z.J.R. Medina R.F. Castañeda J.E.G. Antimicrobial Activity of Truncated and Polyvalent Peptides Derived from the FKCRRWQWRMKKGLA Sequence against Escherichia coli ATCC 25922 an || [26]; PMID 28287494; doi:10.3390/molecules22030452; 26. Huertas Méndez N.J. Vargas Casanova Y. Gómez Chimbi A.K. Hernández E. Leal Castro A.L. Melo Diaz J.M. Rivera Monroy Z.J. García Castañeda J.E. Synthetic Peptides Derived from Bovine Lactoferricin; conditions: cited from earlier work
E. coli ATCC 11775 [4] = format: cell-based
Description: (§1) The minimal inhibitory concentration (MIC) was determined using a microdilution assay. In brief, bacterial strains were incubated for 18 to 24 h at 37 °C in an Muller Hinton broth (MHB) until an optical density of 0.15 to 0.30 (620 nm) was obtained. 90 µL of MHB was mixed with 90 µL of peptide (440 µg/mL), and using a 96-well microtiter plate peptide, serial dilution (200, 100, 50, 25, 12.5, and 6.2 µg/mL) was performed. 10 µL of inoculum (2 × 10^6 CFU/mL) was added to each well. Final volume in each well was 100 µL. Then they were incubated for 24 h at 37 °C, and the absorbance at 620 nm was measured using an Asys Expert Plus ELISA reader. For determining the minimum bactericidal concentration (MBC), a small sample was taken from each well using an inoculation loop, which was then spread on MHA plates and incubated overnight at 37 °C. […] Each of these tests was performed twice (n = 2).

E. coli ATCC 25922 [5] = format: cell-based
Description: as §1

S. aureus ATCC 25923 = test system: S. aureus ATCC 25923; set-up: method as in ref 15, 25, 26 = [15]; PMID 25815317; doi:10.1155/2015/453826; 15. León M.A. Leal A.L. Almanzar G. Rosas J.E. García J.E. Rivera Z.J. Antibacterial activity of synthetic peptides derived from Lactoferricin against Escherichia coli ATCC 25922 and Enterococcus faec || [25]; PMID 28613262; doi:10.3390/molecules22060987; 25. Huertas N.J. Monroy Z.J.R. Medina R.F. Castañeda J.E.G. Antimicrobial Activity of Truncated and Polyvalent Peptides Derived from the FKCRRWQWRMKKGLA Sequence against Escherichia coli ATCC 25922 an || [26]; PMID 28287494; doi:10.3390/molecules22030452; 26. Huertas Méndez N.J. Vargas Casanova Y. Gómez Chimbi A.K. Hernández E. Leal Castro A.L. Melo Diaz J.M. Rivera Monroy Z.J. García Castañeda J.E. Synthetic Peptides Derived from Bovine Lactoferricin; conditions: cited from earlier work

**Q.** Which MIC (E. coli ATCC 11775 [1]) does the source give for `N=C(N)NCCC[C@H](NC(=O)[C@H](Cc1c[nH]c2ccccc12)NC(=O)[C@H](CCC(N)=O)NC(=O)[C@H](Cc1c[nH]c2ccccc12)NC(=O)[C@H](CCCNC(=N)N)NC(=O)[C@@H](N)CCCNC(=N)N)C(=O)NCCCC[C@H](NC(=O)[C@H](CCCNC(=N)N)NC(=O)[C@H](Cc1c[nH]c2ccccc12)NC(=O)[C@H](CCC(N)=O)NC(=O)[C@H](Cc1c[nH]c2ccccc12)NC(=O)[C@H](CCCNC(=N)N)NC(=O)[C@@H](N)CCCNC(=N)N)C(=O)NCCCCCC(=O)N[C@@H](CSSC[C@H](NC(=O)CCCCCNC(=O)[C@H](CCCCNC(=O)[C@H](CCCNC(=N)N)NC(=O)[C@H](Cc1c[nH]c2ccccc12)NC(=O)[C@H](CCC(N)=O)NC(=O)[C@H](Cc1c[nH]c2ccccc12)NC(=O)[C@H](CCCNC(=N)N)NC(=O)[C@@H](N)CCCNC(=N)N)NC(=O)[C@H](CCCNC(=N)N)NC(=O)[C@H](Cc1c[nH]c2ccccc12)NC(=O)[C@H](CCC(N)=O)NC(=O)[C@H](Cc1c[nH]c2ccccc12)NC(=O)[C@H](CCCNC(=N)N)NC(=O)[C@@H](N)CCCNC(=N)N)C(N)=O)C(N)=O` [LfcinB (20–25)4] (I: H-RRWQWRK[Ahx]C-NH2 / II: H-RRWQWRK[Ahx]C-NH2 / III: H-RRWQWR / IV: H-RRWQWR; amide I:7-III:C, II:7-IV:C; disulfide I:9-II:9) here?
**A.** The MIC was 5.5 µM (≈ 25.3 µg/mL).

**Q.** And the MIC [2]?
**A.** Its MIC is 44 µM (≈ 202 µg/mL).

**Q.** What about the MIC (E. coli ATCC 25922 [3]) of the same compound?
**A.** The MIC was 4.4 µM (≈ 20.2 µg/mL).

**Q.** And the “Antibacterial Effect MBC” value (E. coli ATCC 11775 [4]; ATCC 11775)?
**A.** Its value is 44 µM.

**Q.** And the “Antibacterial Effect MIC” value (E. coli ATCC 11775 [4]; ATCC 11775, 24 h)?
**A.** The value was 22 µM.

**Q.** What about the “Antibacterial Effect MIC” value (E. coli ATCC 11775 [4]; E. coli ATCC 11775, microdilution in MHB, 24 h at 37 °C, absorbance 620 nm, n = 2) of the same compound?
**A.** The value was 100 mg/L.

**Q.** And the “Antibacterial Effect MBC” value (E. coli ATCC 11775 [4]; E. coli ATCC 11775, plated on MHA overnight at 37 °C, no bacterial growth, n = 2)?
**A.** Its value is 200 mg/L.

**Q.** What about the “Antibacterial Effect MBC” value (E. coli ATCC 25922 [5]; ATCC 25922) of the same compound?
**A.** The value was 22 µM.

**Q.** What about the “Antibacterial Effect MIC” value (E. coli ATCC 25922 [5]; ATCC 25922, 24 h) of the same compound?
**A.** The value was 22 µM.

**Q.** And the “Antibacterial Effect MIC” value (E. coli ATCC 25922 [5]; E. coli ATCC 25922, microdilution in MHB, 24 h at 37 °C, absorbance 620 nm, n = 2)?
**A.** The value was 100 mg/L.

**Q.** What about the “Antibacterial Effect MBC” value (E. coli ATCC 25922 [5]; E. coli ATCC 25922, plated on MHA overnight at 37 °C, no bacterial growth, n = 2) of the same compound?
**A.** The value was 100 mg/L.

**Q.** And the MIC (S. aureus ATCC 25923)?
**A.** Its MIC is 25 µM (≈ 115 µg/mL).
